Values joined by “and” are separate entries in the source; they are usually repeats but may differ in a detail not shown here. Equal values may be shown once.
Columns and labels:
MKNK2 = MKNK2 (Homo sapiens (Human), UniProt Q9HBH9); experiment: Kinase panel at 1 uM (Table 9); format: binding; settings: read-out: % inhibition at 1 uM, MKNK2
Text: (§2) Screening hits are identified by measuring the amount of protein captured in test versus control samples by using a quantitative, precise, and ultra-sensitive qPCR method that detects the associated DNA label.

JNK3 = JNK3 (Homo sapiens (Human), UniProt P53779); experiment: Kinase panel at 1 uM (Table 9); format: binding; settings: read-out: % inhibition at 1 uM, JNK3
Text: as §2

PIK3CA(I800L) = PIK3CA(I800L) (Homo sapiens (Human), UniProt P42336, I800L); experiment: Kinase panel at 1 uM (Table 9); format: binding; settings: read-out: % inhibition at 1 uM, PIK3CA(I800L)
Text: as §2

DYRK1B = DYRK1B (Homo sapiens (Human), UniProt Q9Y463); experiment: Kinase panel at 1 uM (Table 9); format: binding; settings: read-out: % inhibition at 1 uM, DYRK1B
Text: as §2

PIP5K2C = PIP5K2C (Homo sapiens (Human), UniProt Q8TBX8); experiment: Kinase panel at 1 uM (Table 9); format: binding; settings: read-out: % inhibition at 1 uM, PIP5K2C
Text: as §2

OCI-Ly19 cells = experiment: Cell proliferation analysis for WM and lymphoma cell lines (CellTiter-Glo); format: cell-based; settings: Homo sapiens, 72 hours
Experimental: (§3) Various cell lines were used including Waldenström's macroglobulinemia (WM) cell lines (BCWM.1, MWCL-1, RPCI-WM1) and B-cell lymphoma cell lines (OCI-Ly3, Ramos, OCI-Ly19). Cells were seeded into 384 well plates with the EL406 Combination Washer Dispenser (BioTek Instruments, Inc.) and inhibitor compounds were injected into the cells culture media with the JANUS Automated Workstation (PerkinElmer Inc.).

BLK [1] = molecular target: T1, BLK (Homo sapiens (Human), UniProt P51451); experiment: Invitrogen Select Screening in vitro kinase assay; format: biochemical
Text: (§1) The in vitro activity of compounds of Formula (I) and (II) in inhibiting BMX and other kinases were obtained using an Invitrogen Select Screening assay as known in the art. The IC50 values determined from this assay are shown below.

mTOR [2] = molecular target: T2, mTOR (Homo sapiens (Human), UniProt P42345); experiment: Invitrogen Select Screening in vitro kinase assay; format: biochemical
Text: as §1

PIK3CG = PIK3CG (Homo sapiens (Human), UniProt P48736); experiment: Kinase panel at 1 uM (Table 9); format: binding; settings: read-out: % inhibition at 1 uM, PIK3CG
Text: as §2

CLK2 [3] = molecular target: T3, CLK2 (Homo sapiens (Human), UniProt P49760); experiment: Invitrogen Select Screening in vitro kinase assay; format: biochemical; settings: second value of CLK1/2 cell
FLT3(ITD) = experiment: Kinase panel at 1 uM (Table 9); format: binding
Text: as §2

PIK4CB = PIK4CB (Homo sapiens (Human), UniProt Q9UBF8); experiment: Kinase panel at 1 uM (Table 9); format: binding; settings: read-out: % inhibition at 1 uM, PIK4CB
Text: as §2

mTOR [4] = molecular target: T2, mTOR; experiment: DiscoverX binding assay; settings: DiscoverX binding
Text: as §2

CLK1 [5] = molecular target: T4, CLK1 (Homo sapiens (Human), UniProt P49759); experiment: Invitrogen Select Screening in vitro kinase assay; format: biochemical; settings: first value of CLK1/2 cell
JAK3 [6] = molecular target: T5, JAK3 (Homo sapiens (Human), UniProt P52333); experiment: Invitrogen Select Screening in vitro kinase assay; format: biochemical
EGFR(T790M) [7] = molecular target: T6, EGFR(T790M) (Homo sapiens (Human), UniProt P00533, T790M); experiment: DiscoverX binding assay
Text: as §2

BTK [8] = molecular target: T7, BTK (Homo sapiens (Human), UniProt Q06187); experiment: Invitrogen Select Screening in vitro kinase assay; format: biochemical
BMX [9] = molecular target: T8, BMX (Homo sapiens (Human), UniProt P51813); experiment: Invitrogen Select Screening in vitro kinase assay; format: biochemical
TEC = TEC (Homo sapiens (Human), UniProt P42680); experiment: DiscoverX binding assay
Text: as §2

CSNK2A2 = CSNK2A2 (Homo sapiens (Human), UniProt P19784); experiment: Kinase panel at 1 uM (Table 9); format: binding; settings: read-out: % inhibition at 1 uM, CSNK2A2
Text: as §2

MEK5 = MEK5 (Homo sapiens (Human), UniProt Q13163); experiment: Kinase panel at 1 uM (Table 9); format: binding; settings: read-out: % inhibition at 1 uM, MEK5
Text: as §2

CLK1 [10] = molecular target: T4, CLK1; experiment: DiscoverX binding assay
Text: as §2

BMX [11] = molecular target: T8, BMX; experiment: DiscoverX binding assay
Text: as §2

BTK [12] = molecular target: T7, BTK; experiment: DiscoverX binding assay
Text: as §2

YSK4 = YSK4 (Homo sapiens (Human), UniProt Q56UN5); experiment: Kinase panel at 1 uM (Table 9); format: binding; settings: read-out: % inhibition at 1 uM, YSK4
Text: as §2

JAK3 [13] = molecular target: T5, JAK3; experiment: DiscoverX binding assay
Text: as §2

CLK2 [14] = molecular target: T3, CLK2; experiment: DiscoverX binding assay
Text: as §2

OCI-Ly3 cells = experiment: Cell proliferation analysis for WM and lymphoma cell lines (CellTiter-Glo); format: cell-based; settings: Homo sapiens, 72 hours
Experimental: as §3

BLK [15] = molecular target: T1, BLK; experiment: DiscoverX binding assay
Text: as §2

TAK1 = TAK1 (Homo sapiens (Human), UniProt O43318); experiment: Kinase panel at 1 uM (Table 9); format: binding; settings: read-out: % inhibition at 1 uM, TAK1
Text: as §2

IRAK3 = IRAK3 (Homo sapiens (Human), UniProt Q9Y616); experiment: Kinase panel at 1 uM (Table 9); format: binding; settings: read-out: % inhibition at 1 uM, IRAK3
Text: as §2

MWCL-1 cells = experiment: Cell proliferation analysis for WM and lymphoma cell lines (CellTiter-Glo); format: cell-based; settings: 72 hours
Experimental: as §3

JNK1 = JNK1 (Homo sapiens (Human), UniProt P45983); experiment: Kinase panel at 1 uM (Table 9); format: binding; settings: read-out: % inhibition at 1 uM, JNK1
Text: as §2

Ramos cells = experiment: Cell proliferation analysis for WM and lymphoma cell lines (CellTiter-Glo); format: cell-based; settings: Homo sapiens, 72 hours
Experimental: as §3

DYRK1A = DYRK1A (Homo sapiens (Human), UniProt Q13627); experiment: Kinase panel at 1 uM (Table 9); format: binding; settings: read-out: % inhibition at 1 uM, DYRK1A
Text: as §2

ITK = ITK (Homo sapiens (Human), UniProt Q08881); experiment: DiscoverX binding assay
Text: as §2

EGFR(T790M) [16] = molecular target: T6, EGFR(T790M); experiment: Invitrogen Select Screening in vitro kinase assay; format: biochemical
BCWM.1 cells = experiment: Cell proliferation analysis for WM and lymphoma cell lines (CellTiter-Glo); format: cell-based; settings: BCWM1; 72 hours
Experimental: as §3

DYRK2 = DYRK2 (Homo sapiens (Human), UniProt Q92630); experiment: Kinase panel at 1 uM (Table 9); format: binding; settings: read-out: % inhibition at 1 uM, DYRK2
Text: as §2

T1 sequence (P51451 whole entry): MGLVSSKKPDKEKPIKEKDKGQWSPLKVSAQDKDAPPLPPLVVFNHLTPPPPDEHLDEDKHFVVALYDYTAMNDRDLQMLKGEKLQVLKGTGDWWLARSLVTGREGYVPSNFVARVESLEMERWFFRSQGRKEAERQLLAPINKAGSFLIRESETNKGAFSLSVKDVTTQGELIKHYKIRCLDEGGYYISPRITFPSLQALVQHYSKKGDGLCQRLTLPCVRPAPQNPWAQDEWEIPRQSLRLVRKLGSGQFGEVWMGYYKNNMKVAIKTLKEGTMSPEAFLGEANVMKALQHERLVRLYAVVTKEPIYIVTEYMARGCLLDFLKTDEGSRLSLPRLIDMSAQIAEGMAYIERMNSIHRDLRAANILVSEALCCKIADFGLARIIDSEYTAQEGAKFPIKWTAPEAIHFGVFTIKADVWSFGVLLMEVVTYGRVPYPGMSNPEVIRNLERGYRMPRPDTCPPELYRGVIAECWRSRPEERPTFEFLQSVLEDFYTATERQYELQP
T5 sequence (P52333 whole entry): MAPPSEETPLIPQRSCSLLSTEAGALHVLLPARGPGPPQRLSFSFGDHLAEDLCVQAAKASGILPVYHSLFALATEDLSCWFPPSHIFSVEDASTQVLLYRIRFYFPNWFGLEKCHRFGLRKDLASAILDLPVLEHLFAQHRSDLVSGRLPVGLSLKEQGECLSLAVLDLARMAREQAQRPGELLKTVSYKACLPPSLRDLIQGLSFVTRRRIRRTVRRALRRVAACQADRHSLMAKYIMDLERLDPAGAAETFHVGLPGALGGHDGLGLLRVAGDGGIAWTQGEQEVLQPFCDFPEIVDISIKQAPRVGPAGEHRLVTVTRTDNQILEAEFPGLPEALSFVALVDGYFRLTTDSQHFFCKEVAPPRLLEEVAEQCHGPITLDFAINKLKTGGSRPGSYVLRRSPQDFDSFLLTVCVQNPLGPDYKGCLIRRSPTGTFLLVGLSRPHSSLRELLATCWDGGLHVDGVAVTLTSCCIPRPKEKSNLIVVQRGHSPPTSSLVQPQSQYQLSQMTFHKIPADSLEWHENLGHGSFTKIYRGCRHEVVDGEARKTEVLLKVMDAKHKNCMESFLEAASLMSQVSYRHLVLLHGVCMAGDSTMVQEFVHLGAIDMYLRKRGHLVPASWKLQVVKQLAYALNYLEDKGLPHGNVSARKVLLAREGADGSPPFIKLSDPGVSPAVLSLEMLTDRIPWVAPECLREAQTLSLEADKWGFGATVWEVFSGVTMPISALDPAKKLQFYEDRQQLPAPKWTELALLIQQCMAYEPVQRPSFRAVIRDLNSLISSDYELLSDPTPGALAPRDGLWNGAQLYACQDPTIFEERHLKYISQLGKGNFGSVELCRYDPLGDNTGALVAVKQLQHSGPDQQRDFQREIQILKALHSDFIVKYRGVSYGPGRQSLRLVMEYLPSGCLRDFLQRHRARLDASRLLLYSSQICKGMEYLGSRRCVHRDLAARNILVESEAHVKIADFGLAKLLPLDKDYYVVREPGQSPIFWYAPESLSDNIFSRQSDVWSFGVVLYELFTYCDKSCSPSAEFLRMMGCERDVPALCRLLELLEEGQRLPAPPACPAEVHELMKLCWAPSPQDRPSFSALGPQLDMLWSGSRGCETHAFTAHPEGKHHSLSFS
T3 sequence (P49760 whole entry): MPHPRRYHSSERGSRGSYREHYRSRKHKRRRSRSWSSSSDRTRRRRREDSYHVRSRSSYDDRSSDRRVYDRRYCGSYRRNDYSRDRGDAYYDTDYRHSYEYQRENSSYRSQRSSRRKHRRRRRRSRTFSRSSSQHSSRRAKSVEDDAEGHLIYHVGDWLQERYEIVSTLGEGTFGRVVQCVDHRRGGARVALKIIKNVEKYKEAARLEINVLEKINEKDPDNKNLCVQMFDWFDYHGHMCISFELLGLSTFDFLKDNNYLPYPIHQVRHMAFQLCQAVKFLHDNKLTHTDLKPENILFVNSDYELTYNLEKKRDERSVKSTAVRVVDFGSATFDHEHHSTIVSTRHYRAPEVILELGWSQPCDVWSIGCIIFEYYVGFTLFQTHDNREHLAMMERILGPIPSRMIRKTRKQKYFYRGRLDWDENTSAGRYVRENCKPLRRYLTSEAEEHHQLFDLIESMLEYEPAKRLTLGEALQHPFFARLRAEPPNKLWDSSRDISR
T7 sequence (Q06187 whole entry): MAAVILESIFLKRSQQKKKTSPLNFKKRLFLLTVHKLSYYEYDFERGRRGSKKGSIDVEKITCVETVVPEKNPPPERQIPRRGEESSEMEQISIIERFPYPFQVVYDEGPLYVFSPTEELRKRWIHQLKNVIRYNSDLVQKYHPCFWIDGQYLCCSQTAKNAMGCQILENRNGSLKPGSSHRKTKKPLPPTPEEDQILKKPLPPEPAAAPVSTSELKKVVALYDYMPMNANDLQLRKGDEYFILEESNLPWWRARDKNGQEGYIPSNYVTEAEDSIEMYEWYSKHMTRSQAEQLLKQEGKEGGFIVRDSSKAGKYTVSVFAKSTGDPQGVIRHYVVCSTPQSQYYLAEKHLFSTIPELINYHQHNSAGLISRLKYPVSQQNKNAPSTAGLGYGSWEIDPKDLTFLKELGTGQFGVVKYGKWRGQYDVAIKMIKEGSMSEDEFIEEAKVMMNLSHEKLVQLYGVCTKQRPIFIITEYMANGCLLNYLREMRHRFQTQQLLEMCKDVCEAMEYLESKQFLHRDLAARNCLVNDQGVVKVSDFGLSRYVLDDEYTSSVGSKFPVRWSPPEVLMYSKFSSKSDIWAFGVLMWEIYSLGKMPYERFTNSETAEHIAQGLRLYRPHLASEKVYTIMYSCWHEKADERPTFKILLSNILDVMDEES
T4 sequence (P49759 whole entry): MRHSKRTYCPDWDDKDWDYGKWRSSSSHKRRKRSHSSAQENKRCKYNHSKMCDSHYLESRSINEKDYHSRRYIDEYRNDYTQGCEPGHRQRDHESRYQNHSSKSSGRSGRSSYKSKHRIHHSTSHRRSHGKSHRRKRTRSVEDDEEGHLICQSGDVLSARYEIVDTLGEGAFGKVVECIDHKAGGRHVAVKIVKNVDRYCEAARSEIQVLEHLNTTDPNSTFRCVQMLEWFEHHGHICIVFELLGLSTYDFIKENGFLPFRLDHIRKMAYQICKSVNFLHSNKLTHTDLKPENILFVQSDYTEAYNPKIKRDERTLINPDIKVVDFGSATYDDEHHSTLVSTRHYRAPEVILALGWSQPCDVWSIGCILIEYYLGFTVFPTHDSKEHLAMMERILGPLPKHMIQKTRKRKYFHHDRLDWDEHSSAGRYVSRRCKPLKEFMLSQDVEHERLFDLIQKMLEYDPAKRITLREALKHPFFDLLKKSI
T8 sequence (P51813 whole entry): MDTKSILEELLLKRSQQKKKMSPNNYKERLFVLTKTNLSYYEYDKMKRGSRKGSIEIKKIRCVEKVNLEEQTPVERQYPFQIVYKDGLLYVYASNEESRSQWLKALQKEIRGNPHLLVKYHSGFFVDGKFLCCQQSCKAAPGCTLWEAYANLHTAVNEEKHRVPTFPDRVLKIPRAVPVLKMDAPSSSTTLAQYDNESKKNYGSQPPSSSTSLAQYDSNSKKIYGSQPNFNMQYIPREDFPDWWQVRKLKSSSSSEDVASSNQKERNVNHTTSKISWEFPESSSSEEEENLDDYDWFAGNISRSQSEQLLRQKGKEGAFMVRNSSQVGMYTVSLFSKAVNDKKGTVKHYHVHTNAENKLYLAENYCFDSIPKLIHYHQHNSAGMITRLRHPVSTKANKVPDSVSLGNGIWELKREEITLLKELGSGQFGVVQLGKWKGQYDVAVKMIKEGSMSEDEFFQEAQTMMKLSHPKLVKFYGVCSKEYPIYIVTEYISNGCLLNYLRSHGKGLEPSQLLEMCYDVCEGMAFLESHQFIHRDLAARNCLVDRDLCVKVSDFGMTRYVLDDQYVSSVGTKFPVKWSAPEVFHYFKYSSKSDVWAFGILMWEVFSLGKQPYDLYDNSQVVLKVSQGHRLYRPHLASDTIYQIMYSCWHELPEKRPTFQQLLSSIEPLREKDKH
CSNK2A2, sequence (P19784 whole entry): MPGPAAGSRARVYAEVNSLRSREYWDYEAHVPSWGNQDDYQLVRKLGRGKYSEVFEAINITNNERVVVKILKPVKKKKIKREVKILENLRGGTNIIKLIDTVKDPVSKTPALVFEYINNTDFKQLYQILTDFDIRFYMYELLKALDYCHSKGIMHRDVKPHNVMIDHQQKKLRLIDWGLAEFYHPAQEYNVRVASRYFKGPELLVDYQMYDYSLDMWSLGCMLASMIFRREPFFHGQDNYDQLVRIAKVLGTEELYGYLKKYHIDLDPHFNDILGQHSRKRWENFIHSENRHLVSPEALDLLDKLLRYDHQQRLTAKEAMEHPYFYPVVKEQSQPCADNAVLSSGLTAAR
TEC, sequence (P42680 whole entry): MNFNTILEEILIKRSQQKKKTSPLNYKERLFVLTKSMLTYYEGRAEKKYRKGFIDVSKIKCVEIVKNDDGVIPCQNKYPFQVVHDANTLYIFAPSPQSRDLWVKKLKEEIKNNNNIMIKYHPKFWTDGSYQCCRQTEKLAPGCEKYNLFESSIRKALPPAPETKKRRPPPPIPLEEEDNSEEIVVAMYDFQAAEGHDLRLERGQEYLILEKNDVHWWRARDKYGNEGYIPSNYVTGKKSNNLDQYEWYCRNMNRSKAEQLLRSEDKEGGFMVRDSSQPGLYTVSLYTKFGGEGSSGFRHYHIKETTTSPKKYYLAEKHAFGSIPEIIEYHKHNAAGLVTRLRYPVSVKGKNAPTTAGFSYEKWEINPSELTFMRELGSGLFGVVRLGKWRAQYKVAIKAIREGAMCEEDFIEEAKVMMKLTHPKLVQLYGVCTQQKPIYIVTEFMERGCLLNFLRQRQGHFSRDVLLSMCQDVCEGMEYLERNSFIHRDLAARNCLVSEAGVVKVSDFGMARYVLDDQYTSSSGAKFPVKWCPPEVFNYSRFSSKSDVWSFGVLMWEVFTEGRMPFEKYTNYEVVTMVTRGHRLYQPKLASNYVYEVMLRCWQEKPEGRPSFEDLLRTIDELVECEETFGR

C=CC(=O)Nc1cc(-n2c(=O)ccc3cnc4ccc(-c5cn[nH]c5)cc4c32)ccc1C [II-6]
inhibition at 1 µM (MKNK2): 0.15% | inhibition at 1 µM (JNK3): 1.8% | inhibition at 1 µM (PIK3CA(I800L)): 0.45% | inhibition at 1 µM (DYRK1B): 1.8% | inhibition at 1 µM (PIP5K2C): 2.7% | EC50 (OCI-Ly19 cells): 40 nM | IC50 (BLK [1]): 30.2 nM and 30 nM | IC50 (mTOR [2]): 21.9 nM and 22 nM | inhibition at 1 µM (PIK3CG): 4.2% | IC50 (CLK2 [3]): 50 nM | % inhibition at 1 uM, FLT3(ITD) (FLT3(ITD)): 2.4% | inhibition at 1 µM (PIK4CB): 2.3% | Percent Control, mTOR (mTOR [4]): 0% | IC50 (CLK1 [5]): 384 nM | IC50 (JAK3 [6]): 38.1 nM and 38 nM | Percent Control, EGFR(T790M) (EGFR(T790M) [7]; DiscoverX binding): 1.8% | inhibition at 1 µM (EGFR(T790M) [7]; read-out: % inhibition at 1 uM, EGFR(T790M)): 1.4% | IC50 (BTK [8]): 5.34 nM and 5 nM | IC50 (BMX [9]): 7.36 nM and 7 nM | Percent Control, TEC (TEC): 6% | inhibition at 1 µM (CSNK2A2): 1.2% | inhibition at 1 µM (MEK5): 0.3% | Percent Control, CLK1/2 (CLK1) (CLK1 [10]; DiscoverX binding, first value of cell): 0.4% | inhibition at 1 µM (CLK1 [10]; read-out: % inhibition at 1 uM, CLK1): 0.4% | Percent Control, BMX (BMX [11]): 4.6% | Percent Control, BTK (BTK [12]; DiscoverX binding): 0.2% | percent of control (remaining binding) at 1 µM (BTK [12]; read-out: % inhibition at 1 uM, BTK): 0.2% | inhibition at 1 µM (YSK4): 1.2% | Percent Control, JAK3 (JAK3 [13]; DiscoverX binding): 0% | inhibition at 1 µM (JAK3 [13]; read-out: % inhibition at 1 uM, JAK3(JH1domain-catalytic)): 0% | Percent Control, CLK1/2 (CLK2) (CLK2 [14]; DiscoverX binding, second value of cell): 1.0% | inhibition at 1 µM (CLK2 [14]; read-out: % inhibition at 1 uM, CLK2): 1.6% | EC50 (OCI-Ly3 cells): 80 nM | Percent Control, BLK (BLK [15]; DiscoverX binding): 2.4% | inhibition at 1 µM (BLK [15]; read-out: % inhibition at 1 uM, BLK): 2.4% | inhibition at 1 µM (TAK1): 0.35% | inhibition at 1 µM (IRAK3): 0.7% | EC50 (MWCL-1 cells): 180 nM | inhibition at 1 µM (JNK1): 1.9% | EC50 (Ramos cells): 40 nM | inhibition at 1 µM (DYRK1A): 0.1% | Percent Control, ITK (ITK): 29% | IC50 (EGFR(T790M) [16]): 98.8 nM | EC50 (BCWM.1 cells): 50 nM | inhibition at 1 µM (DYRK2): 0.6%

Source: US10000483B2, “Bone marrow on X chromosome kinase (BMX) inhibitors and uses thereof” (Dana-Farber Cancer Institute, Inc., priority 2012, dated 2018)
